This is an account of results in paper PMC10762250, “Molecular mechanism of antihistamines recognition and regulation of the histamine H1 receptor” (Nature Communications, 2024).

Series [1] relates to hERG potassium channel. To be noted: cited from earlier work.
Series [2] relates to H1R F199^5.47 mutant. Details: method as in PMID 25013351. To be noted: F199 single mutation; cited from earlier work.
Series [3] concerns H1R W428^6.48 mutant. More on the design: method as in PMID 25013351. To be noted: W428 single mutation; cited from earlier work.
The subject of series [4] is H1R F432^6.52 mutant. Details: method as in PMID 25013351. To be noted: F432 single mutation; cited from earlier work.
Series [5] deals with H1R N198A. To be noted: cited from earlier work.
Series [6] has as its system H1R Y108^3.33 mutant. More on the design: method as in PMID 25013351. To be noted: Y108 single mutation; cited from earlier work.
The subject of series [7] is H1R W158^4.56 mutant. More on the design: method as in PMID 25013351. To be noted: W158 single mutation; cited from earlier work.
The subject of series [8] is guinea pig H1R F436A. To be noted: cited from earlier work.
Series [9] concerns H1R Y431^6.51 mutant. Details: method as in PMID 25013351. To be noted: Y431 single mutant; cited from earlier work.
Series [10] addresses T1, H1R-H450A (Homo sapiens, UniProt P35367, H450A). To be noted: H450A vs wild type.
Experimental: (§1) HEK293 cells were seeded into 24-well culture plates (Corning) at a density of 0.1 million per well and incubated overnight at 37 °C with 5% CO2. […] Twenty-four hours after transfection, the culture media was removed, and transfected cells were harvested and washed with Dulbecco’s phosphate buffered saline (DPBS) buffer (Gibco) twice and then resuspended in Hank’s balanced salt solution (HBSS) buffer (Beyotime) at a density of 1.0 × 10^6 cells per milliliter. […] The accumulation of IP1 was calculated according to a standard dose–response curve in GraphPad Prism 8 (GraphPad Software). Data are represented as the mean ± SEM, n = 3 independent samples.
Series [11] has as its system non-H1R targets, including the potassium channel. To be noted: cited from earlier work.
Series [12] has as its target T1, H1R-H450A. Description: cell-based.
Experimental: as §1

T1 sequence (P35367 whole entry H450A): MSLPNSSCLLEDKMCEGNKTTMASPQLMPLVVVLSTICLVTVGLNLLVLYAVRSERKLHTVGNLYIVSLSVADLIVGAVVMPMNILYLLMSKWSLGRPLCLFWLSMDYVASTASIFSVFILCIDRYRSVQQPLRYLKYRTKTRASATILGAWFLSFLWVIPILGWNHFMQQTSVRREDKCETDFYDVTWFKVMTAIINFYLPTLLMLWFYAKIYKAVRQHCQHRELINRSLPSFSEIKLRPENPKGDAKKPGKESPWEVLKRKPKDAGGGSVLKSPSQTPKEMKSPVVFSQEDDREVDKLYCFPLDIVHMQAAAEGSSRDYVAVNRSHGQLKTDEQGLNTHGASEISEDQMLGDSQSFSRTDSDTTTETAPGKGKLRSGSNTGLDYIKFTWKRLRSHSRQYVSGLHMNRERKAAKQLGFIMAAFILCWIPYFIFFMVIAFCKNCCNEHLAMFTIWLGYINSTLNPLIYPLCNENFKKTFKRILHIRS

On to `COc1ccc(CCN2CCC(Nc3nc4ccccc4n3Cc3ccc(F)cc3)CC2)cc1` [astemizole], for which the “hERG potassium channel block” value in [1] is “blocks”.
For the compound `COc1ccc(CN(CCN(C)C)c2ccccn2)cc1` [mepyramine], the “Effect of mutation on H1R affinity” value in [2], in series [3] and in [4] was “abolished” throughout. In addition, the “Effect of mutation on affinity” value in [5] is “did not cause obvious affinity loss”. Further, the “Effect of mutation on binding activity” value in [6], in series [7] and in [9] was “completely disrupted” each time. Moreover, the “Decrease in affinity by mutation” value in series [8] is given as 20 fold.
Broadly, the Emax is the greatest response seen or fitted, relative to the assay's reference. The IC50 is the concentration needed to halve the response being measured. Regarding `CN(c1nccc(=O)[nH]1)C1CCN(c2nc3ccccc3n2Cc2ccc(F)cc2)CC1` [mizolastine], the “Effect of mutation on ability/efficacy to inhibit H1R signaling” value in series [10] was “obviously crippled”. The “Cross-interaction with non-H1R targets” value in [11] is given as “does not cross-interact with any non-H1R targets”. In series [12], the Emax worked out at 36.1 ± 4.94% and the IC50 is 5.14 ± 0.13 nM.
